Test results: patent US20250215177A1, “BLOWING AGENT, FOAMING RESIN COMPOSITION, POLYUREA RESIN FOAM, AND PRODUCTION METHOD FOR POLYUREA RESIN FOAM” (MITSUBISHI GAS CHEMICAL COMPANY, INC., priority 2022, published 2025)

Assays:
Type in all cases: physicochemical
[1] = Amine value of amine compound (JIS K7237-1995 titration); conditions: titration with 0.1 N perchloric acid-acetic acid
Description: The amine value was measured by the following measurement method according to JIS K7237-1995. • (1) 0.1 g of the amine compound was dissolved in 20 mL of acetic acid. • (2) The amine value was calculated by titrating the solution prepared in (1) above with 0.1 N perchloric acid-acetic acid solution using an automatic potentiometric titrator (AT-610 made by Kyoto Electronics Manufacturing Co., Ltd.)

[2] = Percentage increase of mass of amine compound left to stand in air (absorption of carbon dioxide); conditions: 23° C. and 50% RH
Excerpt: Percentage increase of mass of cyclic amine compound (a1) [% by mass]=100×amount of increase of mass of cyclic amine compound (a1)(g)/(mass of cyclic amine compound (a1)(g)+amount of increase of mass of cyclic amine compound (a1)(g)).
[…] By doing so 1,3-BAC and carbon dioxide in the air were reacted to give a blowing agent (carbonate of 1,3-BAC). At that stage, to suppress uneven reaction, the container in which the amine compound was placed was shaken as necessary so as not to leave unreacted 1,3-BAC.
Next, the amount of increase of the mass of 1,3-BAC was measured and the percentage increase of the mass of the amine compound was calculated by the following equation.

[3] = Acid dissociation constant (pKa) of amine compound (potentiometric titration); conditions: in purified water, 25±2° C.
Description: The acid dissociation constant of the amine compound was measured by the following measurement method. • (1) 0.2 g of the amine compound was dissolved in 30 mL of purified water. • (2) The acid dissociation constant (pKa) was calculated by titrating the solution prepared in (1) above with 0.1 N perchloric acid-acetic acid solution using an automatic potentiometric titrator (AT-610 made by Kyoto Electronics Manufacturing Co., Ltd.). The temperature in the measurement was 25±2° C.

[4] = Maximum carbon dioxide (CO2) release temperature of amine compound (DSC after CO2 absorption in air); conditions: amine compound after 24 hours in air at 23° C. and 50% RH; heating rate 10° C./minute, 23 to 250° C., nitrogen
Description: The cyclic amine compound (a1) with carbon dioxide absorbed is heated at a heating rate of 10° C./minute from 23° C. to 250° C., and the temperature at which the amount of heat absorbed due to desorption of carbon dioxide reaches the maximum is measured, and the temperature is defined as the maximum carbon dioxide release temperature. In this regard the cyclic amine compound (a1) with carbon dioxide absorbed may be prepared by leaving 5 mmol of the cyclic amine compound (a1) to stand in air at 23° C. and 50% RH for 24 hours.
A carbon dioxide detector and a Petri dish were placed in an openable desiccator (inner dimension: 370 mm×260 mm×272 mm). […]
Then the amine compound was taken out of the desiccator to give an amine compound with carbon dioxide absorbed. The maximum carbon dioxide release temperature of the amine compound with carbon dioxide absorbed was measured by subjecting the amine compound to DSC as described below. […] The temperature at which the amount of heat absorbed due to the desorption of carbon dioxide was the maximum was calculated from the DSC curve obtained, and the temperature was determined as the maximum carbon dioxide release temperature of the amine compound.

[5] = Maximum endothermic temperature of amine compound (DTA); conditions: heating rate 10° C./minute, 23 to 350° C., nitrogen; evaporation of amine compound
Description: The cyclic amine compound (a1) is heated at a heating rate of 10° C./minute from 23° C. to 350° C. and the temperature at which the amount of heat absorbed due to evaporation of the amine compound (a1) reaches the maximum is measured, and the temperature is defined as the maximum endothermic temperature of the amine compound (a1).
The maximum endothermic temperature of the amine compound was measured by subjecting the amine compound to DTA as described below. First, […] of the amine compound was performed under conditions of a temperature range of 23 to 350° C., a heating rate of 10° C./minute and a nitrogen atmosphere using a differential thermogravimeter (product name DTG-60 made by Shimadzu Corporation). The temperature at which the amount of heat absorbed due to the evaporation of the amine compound was the maximum was calculated from the DTA curve obtained, and the temperature was determined as the maximum endothermic temperature of the amine compound.

| Compound | Amine value [1] | Percentage increase of mass ([2]; CO2 absorption time 10 weeks) | Percentage increase of mass ([2]; CO2 absorption time 1 week) | pKa [3] | Maximum CO2 release temperature [4] | Maximum endothermic temperature [5] |
| --- | --- | --- | --- | --- | --- | --- |
| NCc1cccc(CN)c1 [MXDA, metaxylylenediamine] | 824 mgKOH/g | – | – | – | – | – |
| NCC1CCCC(CN)C1 (stereo not shown) [1,3-BAC, 1,3-bis(aminomethyl)cyclohexane] | 789 mgKOH/g | 22.5 % by mass | – | – | – | – |
| NCCN [Ethylenediamine, ethylenediamine] | – | – | 44.3 % by mass | 9.8 | 103.4 °C | 126.7 °C |
